According to PMC5778891 (Nature, 2017):
Where a chain is given by its changes, count along the chain named.

Tests used:
K2P2.1(TREK-1) [1] = target: T1, K2P2.1(TREK-1) (Mus musculus, UniProt P97438); experiment: HEK293 inside-out patches, 150 mM K+[out]/150 mM Rb+[in], rectification; type: cell-based; details: 5 μM compound
T1 sequence (P97438 1-411 isoform P97438-2): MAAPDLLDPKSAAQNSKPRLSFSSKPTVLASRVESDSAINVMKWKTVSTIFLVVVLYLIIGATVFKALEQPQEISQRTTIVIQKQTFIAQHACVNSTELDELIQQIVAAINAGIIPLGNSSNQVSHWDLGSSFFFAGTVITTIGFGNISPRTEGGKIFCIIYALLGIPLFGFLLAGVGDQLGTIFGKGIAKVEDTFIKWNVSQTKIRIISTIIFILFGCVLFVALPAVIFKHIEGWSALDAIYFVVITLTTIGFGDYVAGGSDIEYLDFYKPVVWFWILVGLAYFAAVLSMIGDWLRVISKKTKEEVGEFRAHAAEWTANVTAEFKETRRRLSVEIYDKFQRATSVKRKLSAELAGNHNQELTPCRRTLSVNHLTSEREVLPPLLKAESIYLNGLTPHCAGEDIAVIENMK

K2P2.1(TREK-1) [2] = target: T1, K2P2.1(TREK-1); experiment: cell-based
K2P2.1(TREK-1) K271Q [3] = target: T2, K2P2.1(TREK-1) K271Q (Mus musculus, UniProt P97438, K286Q); experiment: Two electrode voltage clamp in Xenopus oocytes, K2P2.1; type: cell-based; details: for effect of activator (current potentiation at 0 mV) compared with wild type: 10 μM BL-1249, 30 μM ML67-33
T2 sequence (P97438 1-411 isoform P97438-2 K271Q): T1 sequence (P97438 1-411 isoform P97438-2) with K271Q

[4] = Solubility in aqueous solutions; type: physicochemical
K2P4.1(TRAAK) Q258K = target: T3, K2P4.1(TRAAK) Q258K (Homo sapiens, UniProt Q9NYG8, Q232K); experiment: Two electrode voltage clamp in Xenopus oocytes, K2P4.1; type: cell-based; details: for effect of activator (current potentiation at 0 mV) compared with wild type: Xenopus oocytes, K2P4.1(TRAAK) Q258K, 10 μM BL-1249, 30 μM ML67-33
T3 sequence (Q9NYG8 1-419 isoform Q9NYG8-2 Q258K): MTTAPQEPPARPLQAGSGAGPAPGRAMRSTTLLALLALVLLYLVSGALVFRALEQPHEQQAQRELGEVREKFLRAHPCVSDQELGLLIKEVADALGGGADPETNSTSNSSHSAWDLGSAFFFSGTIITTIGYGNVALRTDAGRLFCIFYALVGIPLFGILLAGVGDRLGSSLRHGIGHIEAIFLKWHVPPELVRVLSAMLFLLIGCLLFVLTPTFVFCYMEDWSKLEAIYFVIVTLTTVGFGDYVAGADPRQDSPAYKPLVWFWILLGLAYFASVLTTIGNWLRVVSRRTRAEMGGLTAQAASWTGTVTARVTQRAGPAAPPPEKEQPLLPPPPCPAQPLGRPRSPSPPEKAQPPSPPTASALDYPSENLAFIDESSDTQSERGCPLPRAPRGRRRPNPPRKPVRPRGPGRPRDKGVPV

K2P2.1(TREK-1) [5] = target: T1, K2P2.1(TREK-1); experiment: Two electrode voltage clamp in Xenopus oocytes, K2P2.1; type: cell-based
K2P4.1(TRAAK) = target: T4, K2P4.1(TRAAK) (Homo sapiens, UniProt Q9NYG8); experiment: Two electrode voltage clamp in Xenopus oocytes, K2P4.1; type: cell-based
T4 sequence (Q9NYG8 1-419 isoform Q9NYG8-2): T3 sequence (Q9NYG8 1-419 isoform Q9NYG8-2 Q258K) with K258Q

K2P2.1(TREK-1)cryst = K2P2.1(TREK-1)cryst (Mus musculus, UniProt P97438, A104R/A107P/E321A/I103L/K99R/N110S/N134A/Q100E/Q105A/S111D/S315A/T101K/T112Q); experiment: cell-based
K2P2.1(TREK-1)cryst, sequence (P97438 36-337 K99R/Q100E/T101K/I103L/A104R/Q105A/A107P/N110S/S111D/T112Q/N134A/S315A/E321A): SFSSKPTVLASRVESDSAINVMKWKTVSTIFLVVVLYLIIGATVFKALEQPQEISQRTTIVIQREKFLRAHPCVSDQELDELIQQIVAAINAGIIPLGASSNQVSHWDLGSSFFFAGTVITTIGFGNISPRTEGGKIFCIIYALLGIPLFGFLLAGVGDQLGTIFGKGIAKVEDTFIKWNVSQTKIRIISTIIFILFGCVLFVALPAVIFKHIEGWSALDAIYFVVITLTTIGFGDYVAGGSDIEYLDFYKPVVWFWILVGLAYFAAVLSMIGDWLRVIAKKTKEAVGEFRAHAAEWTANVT

K2P10.1(TREK-2) = target: T5, K2P10.1(TREK-2) (Homo sapiens, UniProt P57789); experiment: Two electrode voltage clamp in Xenopus oocytes, K2P10.1; type: cell-based
T5 sequence (P57789 1-543 isoform P57789-3): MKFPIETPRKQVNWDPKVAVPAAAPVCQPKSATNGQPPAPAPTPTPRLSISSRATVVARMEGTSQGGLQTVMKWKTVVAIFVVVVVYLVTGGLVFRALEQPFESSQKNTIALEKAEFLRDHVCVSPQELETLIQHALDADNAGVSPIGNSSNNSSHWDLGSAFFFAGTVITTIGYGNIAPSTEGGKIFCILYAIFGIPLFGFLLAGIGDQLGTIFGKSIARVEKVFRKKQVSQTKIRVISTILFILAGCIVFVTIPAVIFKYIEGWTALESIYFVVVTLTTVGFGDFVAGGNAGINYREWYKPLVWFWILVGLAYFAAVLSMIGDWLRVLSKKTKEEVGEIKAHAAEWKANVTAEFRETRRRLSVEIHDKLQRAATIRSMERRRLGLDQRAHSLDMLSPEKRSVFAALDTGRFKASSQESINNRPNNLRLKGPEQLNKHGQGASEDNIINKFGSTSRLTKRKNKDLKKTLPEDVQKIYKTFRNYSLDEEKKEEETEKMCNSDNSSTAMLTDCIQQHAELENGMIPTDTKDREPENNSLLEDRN

K2P2.1(TREK-1) K271Q [6] = target: T2, K2P2.1(TREK-1) K271Q; experiment: HEK cell patch clamp response to arachidonic acid, K2P2.1; type: cell-based; details: HEK cells, 10 μM AA

| effect of activator (current potentiation at 0 mV) compared with wild type (K2P2.1(TREK-1) K271Q [3]) | effect of activator (current potentiation at 0 mV) compared with wild type (K2P4.1(TRAAK) Q258K) | Structure (SMILES) | rectification coefficient (I+100mV/I-100mV) (K2P2.1(TREK-1) [1]) | EC50 (K2P2.1(TREK-1) [2]) | sensitivity to activator (K2P2.1(TREK-1) K271Q [3]) | solubility in aqueous solutions [4] | EC50 (K2P4.1(TRAAK) Q258K) | EC50 (K2P2.1(TREK-1) [5]) | activation of channel (K2P4.1(TRAAK)) | EC50 (K2P2.1(TREK-1)cryst) | EC50 (K2P10.1(TREK-2)) | also measured |
| --- | --- | --- | --- | --- | --- | --- | --- | --- | --- | --- | --- | --- |
|  |  | CS(=O)(=O)Nc1ccc(C(=O)NCc2ccc(Cl)cc2Cl)cc1 [ML335, N-[(2,4-dichlorophenyl)methyl]-4-methanesulfonamidobenzamide] | ~ 1 | 5.2 ± 0.8 µM | insensitive | insoluble | 16.2 ± 3 µM | 14.3 ± 2.7 µM | not | 10.5 ± 2.7 µM | 5.2 ± 0.5 µM |  |
| unchanged | unchanged | CC1(C)c2cc(Cl)ccc2N(CCc2nn[nH]n2)c2ccc(Cl)cc21 [ML67-33, reference compound] |  |  |  |  |  |  |  |  |  |  |
| unchanged | unchanged | c1ccc(-c2nnn[nH]2)c(Nc2cccc3c2CCCC3)c1 [BL-1249, (5,6,7,8-tetrahydro-naphthalen-1-yl)-[2-(1H-tetrazol-5-yl)-phenyl]-amine, reference compound] |  |  |  |  |  |  |  |  |  |  |
|  |  | C=CS(=O)(=O)N[C@H]1CC[C@H](C(=O)NCc2ccc(Cl)cc2Cl)CC1 [ML335a, trans-N-[(2,4-dichlorophenyl)methyl]-4-ethenesulfonamidocyclohexane-1-carboxamide] |  |  |  |  |  |  |  |  |  | effect on channel (K2P2.1(TREK-1) [5]; Xenopus oocytes, dose response, K2P2.1(TREK-1)): no effect |
|  |  | Cc1cc(Cl)ccc1OCCNC(=O)c1cccs1 [ML402, N-[2-(4-chloro-2-methylphenoxy)ethyl]thiophene-2-carboxamide] | ~ 1 | 5.9 ± 1.6 µM | insensitive | insoluble | 13.6 ± 1.5 µM | 13.7 ± 7 µM | not | 14.9 ± 1.6 µM | 5.9 ± 1.6 µM |  |
|  |  | CCCCC/C=C\C/C=C\C/C=C\C/C=C\CCCC(=O)O [arachidonic acid] |  |  |  |  |  |  |  |  |  | effect of activator (current potentiation at 0 mV) compared with wild type (K2P2.1(TREK-1) K271Q [6]): unchanged |
